The results in this text go back to patent publication US20260165982A1, “COMPOSITIONS AND METHODS FOR DELIVERY OF NUCLEIC ACID THERAPEUTICS” (Entrada Therapeutics, Inc., priority 2022, published 2026).

The test has as its system HeLa cells. The test can be described thus: LNP cellular uptake / eGFP mRNA expression by FACS flow cytometry. The test is classed as cell-based, Human. The settings on record: eGFP mRNA cargo. How it is done:
LNP cellular uptake for the LNP formulations in Table 10 was tested. HeLa cells (Human epithelial cells, ATCC) were seeded at 0.05×10^6 cells per well in 1000 μL DMEM media (Dulbecco's Modified Eagle Medium, GIBCO) containing 10% FBS (GIBCO) and 5% penicillin streptomycin (GIBCO) in 24-well plate. The LNP formulations of Table 10 containing the eGFP mRNA were prepared with a total treatment dose of 250 ng and 1000 ng eGFP mRNA per well in triplicates. The cells were incubated for 24 h at 37° C. Cells were then trypsinized and resuspended in PBS and centrifuged at 200 g for 5 min. The supernatant was removed, and the pelleted cells were redispersed in 500 μL of PBS+2% FBS per well and transferred to FACS tubes and read on a flow cytometry analyzer (BD FACSCanto™ II). The data presented are the mean fluorescent intensity of the signals from each cell treatment analyzed. For transfection efficiency, treated cells were gated for EGFP expression, and the data presented are the percentage of cells analyzed with higher EGFP expression than untreated cells. […] HeLa cells were treated with the various formulations for 24 hours before using fluorescence activated cell sorting (FACS) flow cytometry to quantify eGFP expression in the treated cells. The higher the mean fluorescence intensity, the greater the expression of eGFP, ant therefore, the greater the transfection efficiency.

As to `CCCCCCCCCCCOC(=O)CCCCCN(CCO)CCCCCCCC(=O)OC(CCCCCCCC)CCCCCCCC` [SM-102], the “efficacy (transfection), findings from all the experiments of Example 2” value is “more efficacious ionizable lipid than D-Lin-MC3-DMA”.
